Source: paper PMC11821258 (Molecules, 2025)
Like-named read-outs stand apart in the source and are kept apart here.

What was measured:
Assay type in all cases: cell-based
[1] = system: human biphenotypic B myelomonocytic leukemia MV4-11; test: Antiproliferative activity, MTT assay, 72 h; details: for IC50: Homo sapiens, MV4-11, 72 h; for SI: IC50 MCF-10A / IC50 MV4-11
Description: (§1) The tested compounds were dissolved in DMSO (dimethyl sulfoxide) to a concentration of 10 mg/mL and then were diluted in the culture medium to reach the final concentrations. The cells were plated in 384-well plates at a density of 1 × 10^3 or 2 × 10^3 (MCF-10A) cells per well (Greiner Bio One, Kremsmünster, Austria) and in 96-well plates (MV4-11 cell; Sarstedt, Nümbrecht, Germany) at a density of 5 × 10^3 cells per well. After 24 h of incubation, the tested compounds were added at concentrations in the range of 100–0.03 µg/mL and, after the next 72 h of exposure to tested agents, the cytotoxic effect of all agents was examined using the MTT (MV4-11) or SRB assay, described previously. The values of IC50 (inhibitory concentration 50%) were calculated separately for each experiment (repeated 3–5 times) using the Prolab-3 system which is based on Cheburator 0.4 software. Doxorubicin was applied as a reference drug. The IC50 values in µg/mL were calculated to µM.
This assay was used against MV4-11 leukemia cells and was performed after 72 h of exposure of the tested agents to the cells. For each well, 20 µL of the MTT [3-(4,5-dimethylthiazol-2-yl)-2,5-diphenyl tetrazolium bromide] solution (5 mg/mL, Merck, Darmstadt, Germany) was added. After the incubation time (4 h at 37 °C), 80 µL of the lysing buffer was added to each well (mixture of 225 mL of DMF (dimethylformamide) Avantor, Poland; 67.5 g of SDS, Merck, Darmstadt, Germany; and 275 mL of distilled water). After the next 24 h, the absorbance of the samples was measured at a 570 nm wavelength on a Synergy H4 photometer (BioTek Instruments, Winooski, VT, USA). The absorbance of wells without the cells was the background.

[2] = system: human normal epithelial cells from the mammary gland (MCF-10A); test: Cytotoxicity on non-tumorigenic cells, SRB assay, 72 h
Description: as §1
(§2) The cytotoxicity assay was performed after the cultured cells were exposed to the tested agents for 72 h using the authomatic Washer dyspenser EL406, BioTek. At the first step, the washer dispenser collected 40 µL of cultured medium from each wells, and then the cells were fixed by gently layering 20 µL per well of cold 25% trichloroacetic acid to each well. The incubation time was 40 min and then the plates were washed with tap water. The cells were stained with 20 µL per well of 0.1% sulforhodamine B (SRB, Merck, Darmstadt, Germany) for 30 min. Unbound sulforhodamine B was removed by washing it with 1% acetic acid. The protein-bound dye was extracted in 30 min using 70 µL per well of 10 mM unbuffered Tris base (Merck, Darmstadt, Germany). The absorbance (at 540 nm) was measured on a Synergy H4 photometer (BioTek Instruments, Winooski, VT, USA). The absorbance of the wells without the cells was the background.

[3] = system: human pancreas cancer MiaPaca-2 cells; test: Antiproliferative activity, SRB assay, 72 h; details: for SI: IC50 MCF-10A / IC50 MiaPaca-1 (so in the source)
Description: as §1, §2

[4] = system: human breast cancer MCF-7; test: Antiproliferative activity, SRB assay, 72 h; details: for IC50: Homo sapiens; for SI: IC50 MCF-10A / IC50 MCF-7
Description: as §1, §2

[5] = system: human melanoma Hs294T cells; test: Antiproliferative activity, SRB assay, 72 h; details: for IC50: 72 h; for SI: IC50 MCF-10A / IC50 Hs249T (so in the source)
Description: as §1, §2

[6] = system: human prostate adenocarcinoma PC-3; test: Antiproliferative activity, SRB assay, 72 h; details: for IC50: Homo sapiens; for SI: IC50 MCF-10A / IC50 PC-3
Description: as §1, §2

[7] = system: human colon cancer HCT116 cells; test: Antiproliferative activity, SRB assay, 72 h; details: for SI: IC50 MCF-10A / IC50 HCT116
Description: as §1, §2

[8] = system: human lung carcinoma A549; test: Antiproliferative activity, SRB assay, 72 h; details: for IC50: A549, 72 h; for SI: IC50 MCF-10A / IC50 A549
Description: as §1, §2

[9] = Homo sapiens, MCF-10A normal cells, SRB, read-out: IC50
[10] = Homo sapiens, MIA PaCa-2, MiaPaca-1 (so in the source), 72 h, SRB, read-out: IC50
[11] = MCF7, MCF-7, 72 h, SRB, read-out: IC50
[12] = Homo sapiens, Hs 294T, Hs249T (so in the source), SRB, read-out: IC50
[13] = PC-3, 72 h, SRB, read-out: IC50
[14] = Homo sapiens, HCT-116, HCT116, 72 h, SRB, read-out: IC50
[15] = Homo sapiens, SRB, read-out: IC50

Row | Compound | IC50 ([1]; MTT, read-out: IC50) [µM] | SI [1] | IC50 [2, 9] [µM] | IC50 [3, 10] [µM] | SI [3] | IC50 [4, 11] [µM] | SI [4] | IC50 [5, 12] [µM] | SI [5] | IC50 [6, 13] [µM] | SI [6] | IC50 [7, 14] [µM] | SI [7] | IC50 [8, 15] [µM] | SI [8] | IC50 [1] [µM] | IC50 ([4]; MCF7, 72 h) [µM] | IC50 ([6]; 72 h) [µM] | other results
1 | C=C(C)[C@@H]1CC[C@]2(COC(C)=O)CC[C@]3(C)[C@H](CC[C@@H]4[C@@]5(C)CC[C@H](O)C(C)(C)[C@@H]5CC[C@]43C)[C@@H]12 [A, 28-O-acetylbetulin, reference compound] | 41.1 ± 8.46 | 3.02 | 124 ± 33 | 127 ± 16.3 | 0.98 | 72.4 ± 6.6 | 1.71 | 128 ± 14.2 | 0.97 | 80.7 ± 13.4 | 1.54 | 40.6 ± 13.6 | 3.05 | 27.8 ± 10.5 | 4.45 |  |  |  | 
2 | C=C(C)[C@@H]1CC[C@]2(COC(=O)C#CC)CC[C@]3(C)C(CCC4[C@@]5(C)CC[C@H](OC(=O)CC(C)(C)C(=O)O)C(C)(C)C5CC[C@]43C)C12 (some centres unmarked) [Compound 5c] | 11 ± 1.1 | 2.91 | 32 ± 4.87 | 32 ± 6.12 | 1.00 | 25 ± 4.87 | 1.28 | 23.2 ± 3.77 | 1.38 | 22.9 ± 4.71 | 1.40 | 9.26 ± 0.47 | 3.46 | 6.59 ± 1.88 | 4.86 |  |  |  | 
3 | C=C(C)[C@@H]1CC[C@]2(COC(C)=O)CC[C@]3(C)C(CCC4[C@@]5(C)CC[C@H](OC(=O)CCC(=O)O)C(C)(C)C5CC[C@]43C)C12 (some centres unmarked) [Compound 3] |  | 8.82 |  |  | 0.97 |  | 1.94 |  | 1.53 |  | 1.50 |  | 2.55 |  | 6.53 | 3.93 ± 1.54 | 17.3 ± 6.33 | 22.4 ± 2.56 | IC50 ([2]; Homo sapiens, MCF-10A): 33.5 ± 1.88 µM; IC50 ([3]; Homo sapiens, MIA PaCa-2, 72 h): 34.5 ± 5.47 µM; IC50 ([5]; Homo sapiens, Hs 294T): 21.9 ± 4.27 µM; IC50 ([7]; Homo sapiens, HCT-116, 72 h): 13.2 ± 1.02 µM; IC50 ([8]; Homo sapiens): 5.13 ± 0.85 µM
4 | C=C(C)[C@@H]1CC[C@]2(COC(C)=O)CC[C@]3(C)C(CCC4[C@@]5(C)CC[C@H](OC(=O)CC(C)(C)CC(=O)O)C(C)(C)C5CC[C@]43C)C12 (some centres unmarked) [Compound 1] | 2.9 ± 0.26 | 11.44 | 33.2 ± 1.91 | 23.6 ± 3.83 | 1.41 | 7.02 ± 2.39 | 4.73 | 11.6 ± 1.12 | 2.85 | 14 ± 7.02 | 2.36 | 6.38 ± 2.87 | 5.20 | 4.94 ± 0.48 | 6.71 |  |  |  | 
5 | C=C(C)[C@@H]1CC[C@]2(COC(=O)C#CC3CC3)CC[C@]3(C)C(CCC4[C@@]5(C)CC[C@H](OC(=O)CC(C)(C)CC(=O)O)C(C)(C)C5CC[C@]43C)C12 (some centres unmarked) [Compound 4e] | 3.16 ± 0.88 | 21.50 | 68 ± 34.9 | 67.1 ± 14.5 | 1.01 | 25.7 ± 4.43 | 2.60 | 19.8 ± 5.61 | 3.40 | 15.2 ± 5.91 | 4.47 | 23.2 ± 5.91 | 2.93 | 59.8 ± 22.2 | 1.14 |  |  |  | 
6 | C=C(C)[C@@H]1CC[C@]2(COC(=O)C#Cc3ccccc3)CC[C@]3(C)C(CCC4[C@@]5(C)CC[C@H](OC(=O)CC(C)(C)CC(=O)O)C(C)(C)C5CC[C@]43C)C12 (some centres unmarked) [Compound 4f] |  |  |  |  |  |  |  |  |  |  |  |  |  |  |  | 46.6 ± 11.8 | 131 ± 8.83 | 95.8 ± 27.1 | IC50 ([2]; MCF-10A normal cells, SRB): Neg; IC50 ([3]; MiaPaca-1 (so in the source), 72 h, SRB): Neg; IC50 ([5]; Hs249T (so in the source), SRB): Neg; IC50 ([7]; HCT116, 72 h, SRB): does not show activity and Neg; IC50 ([8]; SRB): does not show activity and Neg
